The series is described as follows: recombinant barcode read abundance after kanamycin selection (control-corrected) (log10(CPM+1)); higher = more efficient recombination; sequences stand for … in AGTGCAGAGAAAATCGGCCAGTTTTCTCTGCCTGCAGTCCGCATGCCGT…AGATTTATGCAGCGGACTGCCTTTCTCCCAAAGTGATAAACCGGACAGTATCATGGACCGGTTTTCCCGGTAATCCGTATTTGCAAGGTTGGTTTCACT; site = the 11-nt target. The gist of the method:
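IS621 bridge RNA target-binding loops were paired with targets in a pooled library tested in E. coli. After co-electroporation with a donor plasmid, cells were plated in two replicates on chloramphenicol/ampicillin LB agar (control) and on chloramphenicol/ampicillin/kanamycin carrying 0.1 mM IPTG. Barcodes at recombinant junctions were counted as counts per million, averaged and control-corrected to give recombination efficiency. Values are log10(CPM+1).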
Regarding “CACACCACTTGGGTTCTAACCTGTTGCCT (site CACAGCACTAG)”, the “recombinant barcode read abundance (log10)” value is 0.211.
With “CACACCACTTGGGTTCTAACCTGTTGCCT (site CACATCACTAG)” the figure was 0.108; with “CACACCGCTTGGGTTCTAACCTGTTGCCT (site CACACCGCTAG)”, 1.62.
With “CACACCGCTTGGGTTCTAACCTGTTGCCT (site CACACGGCTAG)” the figure was 0.0403; with “CACACTCCTTGGGTTCTAACCTGTTGCAG (site CACACTCCTCT)”, 0.498; with “CACACTCCTTGGGTTCTAACCTGTTGCAG (site CAGACGCCTCT)”, 0.193.
To “CACAGTGCTTGGGTTCTAACCTGTTGCCT (site CACAGTGCTAG)” belongs 0.235; to “CACAGTGCTTGGGTTCTAACCTGTTGCCT (site CAGAGTACTAG)”, 0.0936; to “CACATACCTTGGGTTCTAACCTGTTGCCG (site CACATACCTAC)”, 0.0694.
For the sequence “CACATACCTTGGGTTCTAACCTGTTGCCG (site CACATACCTCG)”, the “recombinant barcode read abundance (log10)” value turned out to be 0.443.
With “CACATACCTTGGGTTCTAACCTGTTGCGT (site CACATACCTAC)” the figure was 1.92.
Consider “CACATACCTTGGGTTCTAACCTGTTGCGT (site CACATACCTCG)”, for which the “recombinant barcode read abundance (log10)” value was 0.0777.
Regarding “CACATCGCTTGGGTTCTAACCTGTTGCCT (site CACATCGCTAG)”, the “recombinant barcode read abundance (log10)” value was 1.08.
To “CACATCGCTTGGGTTCTAACCTGTTGCCT (site TACTTCGCTAG)” belongs 0.155; to “CACATGGCTTGGGTTCTAACCTGTTGCCG (site CACAGGGCTCC)”, 0.159.
“CACATGGCTTGGGTTCTAACCTGTTGCCG (site CACATGGCTCG)”: the “recombinant barcode read abundance (log10)” value came to 0.259.
To “CACCAACCTTGGGTTCTAACCTGTTGCCT (site CACCAAACTAG)” belongs 0.112; to “CACCAACCTTGGGTTCTAACCTGTTGCCT (site CACCAACCTAG)”, 0.313.
With “CACCAGTCTTGGGTTCTAACCTGTTGCGG (site CACAAGTCTAC)” the figure was 0.0664.
To “CACCAGTCTTGGGTTCTAACCTGTTGCGG (site CACCAGTCTCC)” belongs 2.14.
On to “CACCCTACTTGGGTTCTAACCTGTTGCCT (site AACCCTACTAG)”, for which the “recombinant barcode read abundance (log10)” value stood at 0.04.
For the sequence “CACCCTACTTGGGTTCTAACCTGTTGCCT (site CACCCTACTAG)”, the “recombinant barcode read abundance (log10)” value was 1.26.
To “CACCCTACTTGGGTTCTAACCTGTTGCCT (site GACCCTACTAG)” belongs 0.0997; to “CACCCTACTTGGGTTCTAACCTGTTGCCT (site TACCCTACTAG)”, 0.0523.
With “CACCGTCCTTGGGTTCTAACCTGTTGCGT (site CACCGTCCTAC)”, the “recombinant barcode read abundance (log10)” value came out at 3.03.
To “CACCGTCCTTGGGTTCTAACCTGTTGCGT (site CACCGTCCTAT)” belongs 1.57; to “CACCTGACTTGGGTTCTAACCTGTTGCCG (site CACCTGACTCG)”, 0.599.
With “CACCTGACTTGGGTTCTAACCTGTTGCCG (site CACCTGTCTCG)” the figure was 0.0187.
“CACCTGTCTTGGGTTCTAACCTGTTGCGG (site AGATATACTAA)”: the “recombinant barcode read abundance (log10)” value amounted to 0.0793.
With “CACCTGTCTTGGGTTCTAACCTGTTGCGG (site CACCTGTCTCC)” the figure was 1.8; with “CACGATCCTTGGGTTCTAACCTGTTGCTT (site AGTCGGACTGT)”, 0.11.
With “CACGATCCTTGGGTTCTAACCTGTTGCTT (site CACGATCCTAA)” the figure was 1.52.

The record behind these values is the supplement of paper PMC11208160.
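Further: IS621 recombinase and bridge RNA in Escherichia coli cells.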
